Source: PubChem BioAssay AID210 (DTP/NCI, 2004)
Toxic doses and inconclusive results are not listed. The calls were made as follows: active = survival T/C of 150% or more; inactive = T/C below 125% in these data.

Test system: CD2F1 mice, ip Colon 26 adenocarcinoma, median survival T/C
Experiment: NCI In Vivo Anticancer Drug Screen. Data for tumor model Colon 26 Adenocarcinoma (intraperitoneal) in CD2F1 (CDF1) mice
Settings: endpoint: median survival time, higher = longer survival
Experimental: The antitumor activity of compounds was measured in mice bearing transplantable tumors. Survival or tumor size were measured and the results are expressed as the measurement made in the treated group (T) divided by the measurement made in the vehicle treated control group (C). The tumor model used in this assay is Colon 26 Adenocarcinoma (intraperitoneal) in CD2F1 (CDF1) mice

Measured: T/C

COc1cccc2c1C(=O)c1c(O)c3c(c(O)c1C2=O)C[C@@](O)(C(=O)CO)C[C@@H]3OC1CC(N(C)C)C(O)C(C)O1 (stereo partly drawn)
inactive: dose: 2.16 mg/kg/injection, schedule: Q04DX003 (ip), vehicle: water 103 % of control | dose: 5.6 mg/kg/injection, schedule: Q07DX003 (iv), vehicle: water 107 % of control | dose: 9.0 mg/kg/injection, schedule: Q07DX003 (iv), vehicle: water 101 % of control | dose: 14.0 mg/kg/injection, schedule: Q07DX003 (iv), vehicle: water 92 % of control

CC1(CO)C(O)CCC2(C)C1C(O)CC1CC3CC12CCC3(O)CO (stereo not drawn)
inactive: dose: 12.5 mg/kg/injection, schedule: Q04DX002 (ip), vehicle: distilled water + Tween-80 120 % of control | dose: 50.0 mg/kg/injection, schedule: Q04DX002 (ip), vehicle: distilled water + Tween-80 98 % of control | dose: 100.0 mg/kg/injection, schedule: Q04DX002 (ip), vehicle: distilled water + Tween-80 110 % of control | dose: 200.0 mg/kg/injection, schedule: Q04DX002 (ip), vehicle: distilled water + Tween-80 103 % of control

O=C(O)c1ccc(C(=O)O)c(C(=O)O)c1.[NH-]C1CCCCC1[NH-].[Pt+2]
inactive: dose: 2.0 mg/kg/injection, schedule: Q01DX004 (ip), vehicle: sodium bicarbonate 106 % of control | dose: 3.12 mg/kg/injection, schedule: Q04DX003 (ip), vehicle: sodium bicarbonate 114 % of control | dose: 4.0 mg/kg/injection, schedule: Q01DX004 (ip), vehicle: sodium bicarbonate 101 % of control | dose: 6.25 mg/kg/injection, schedule: Q04DX003 (ip), vehicle: sodium bicarbonate 111 % of control | dose: 8.0 mg/kg/injection, schedule: Q01DX004 (ip), vehicle: sodium bicarbonate 105 % of control | dose: 8.8 mg/kg/injection, schedule: Q01DX001 (iv), vehicle: saline 96 % of control | dose: 9.1 mg/kg/injection, schedule: Q04DX004 (iv), vehicle: sodium bicarbonate 105 % of control | dose: 13.2 mg/kg/injection, schedule: Q01DX001 (iv), vehicle: saline 87 % of control | dose: 13.5 mg/kg/injection, schedule: Q04DX004 (iv), vehicle: sodium bicarbonate 104 % of control | dose: 19.8 mg/kg/injection, schedule: Q01DX001 (ip), vehicle: saline 92 % of control | dose: 20.0 mg/kg/injection, schedule: Q04DX004 (iv), vehicle: sodium bicarbonate 114 % of control | dose: 29.6 mg/kg/injection, schedule: Q01DX001 (ip), vehicle: saline 96 % of control | dose: 35.0 mg/kg/injection, schedule: Q04DX002 (ip), vehicle: sodium bicarbonate 103 % of control | dose: 44.4 mg/kg/injection, schedule: Q01DX001 (iv), vehicle: saline 121 % of control | dose: 100.0 mg/kg/injection, schedule: Q04DX003 (ip), vehicle: sodium bicarbonate 101 % of control
active: dose: 8.8 mg/kg/injection, schedule: Q01DX001 (ip), vehicle: saline 150 % of control | dose: 12.5 mg/kg/injection, schedule: Q04DX003 (ip), vehicle: sodium bicarbonate 167 % of control | dose: 25.0 mg/kg/injection, schedule: Q04DX003 (ip), vehicle: sodium bicarbonate 167 % of control | dose: 50.0 mg/kg/injection, schedule: Q04DX003 (ip), vehicle: sodium bicarbonate 159 % of control

O=C1c2ccccc2C(=O)c2c(NCCCNCCO)ccc(NCCCNCCO)c21
inactive: dose: 16.0 mg/kg/injection, schedule: Q01DX009 (ip), vehicle: acid diluted with saline 107 % of control | dose: 32.0 mg/kg/injection, schedule: Q01DX009 (ip), vehicle: acid diluted with saline 111 % of control | dose: 64.0 mg/kg/injection, schedule: Q01DX009 (ip), vehicle: acid diluted with saline 123 % of control

S=P(N1CC1)(N1CC1)N1CC1
inactive: dose: 1.5 mg/kg/injection, schedule: Q04DX003 (ip), vehicle: saline 106 % of control | dose: 3.0 mg/kg/injection, schedule: Q04DX003 (ip), vehicle: saline 115 % of control
active: dose: 12.0 mg/kg/injection, schedule: Q04DX003 (ip), vehicle: saline 153 % of control

CCOC(=O)c1c[nH]c2oc(/C=N/N3CC(CN4CCOCC4)OC3=O)cc2c1=O (stereo not drawn)
inactive: dose: 12.5 mg/kg/injection, schedule: Q04DX003 (ip), vehicle: suspension in saline 97 % of control | dose: 25.0 mg/kg/injection, schedule: Q04DX003 (ip), vehicle: suspension in saline 90 % of control | dose: 50.0 mg/kg/injection, schedule: Q04DX003 (ip), vehicle: suspension in saline 96 % of control | dose: 100.0 mg/kg/injection, schedule: Q04DX003 (ip), vehicle: suspension in saline 90 % of control | dose: 200.0 mg/kg/injection, schedule: Q04DX003 (ip), vehicle: suspension in saline 101 % of control | dose: 400.0 mg/kg/injection, schedule: Q04DX003 (ip), vehicle: suspension in saline 101 % of control

CC(=O)[C@]1(O)Cc2c(O)c3c(c(O)c2[C@@H](OC2CC(N)C(O)C(C)O2)C1)C(=O)c1c(O)cccc1C3=O (stereo partly drawn)
active: dose: 1.8 mg/kg/injection, schedule: Q07DX002 (iv), vehicle: water 157 % of control | dose: 1.8 mg/kg/injection, schedule: Q07DX003 (iv), vehicle: water 157 % of control | dose: 2.8 mg/kg/injection, schedule: Q07DX002 (iv), vehicle: water 183 % of control | dose: 2.8 mg/kg/injection, schedule: Q07DX003 (iv), vehicle: water 187 % of control
inactive: dose: 0.7 mg/kg/injection, schedule: Q07DX003 (iv), vehicle: water 106 % of control | dose: 1.1 mg/kg/injection, schedule: Q07DX003 (iv), vehicle: water 124 % of control | dose: 4.2 mg/kg/injection, schedule: Q07DX002 (iv), vehicle: water 104 % of control | dose: 600.0 micrograms/kg/injection, schedule: Q04DX003 (ip), vehicle: water 92 % of control

CC(=O)O[C@@H]1[C@@H](O)C2=C3[C@]4(C)[C@@H]1C(C)(C)C(=O)C[C@@H]4[C@]3(O)[C@H](OC(C)=O)[C@@]1(C[C@@H]1C)C2=O
inactive: dose: 6.25 mg/kg/injection, schedule: Q04DX003 (ip), vehicle: distilled water + Tween-80 94 % of control | dose: 6.25 mg/kg/injection, schedule: Q04DX003 (ip), vehicle: saline with Tween-80 106 % of control | dose: 12.5 mg/kg/injection, schedule: Q04DX003 (ip), vehicle: distilled water + Tween-80 106 % of control | dose: 25.0 mg/kg/injection, schedule: Q04DX003 (ip), vehicle: distilled water + Tween-80 106 % of control | dose: 25.0 mg/kg/injection, schedule: Q04DX003 (ip), vehicle: saline with Tween-80 99 % of control | dose: 50.0 mg/kg/injection, schedule: Q04DX003 (ip), vehicle: distilled water + Tween-80 100 % of control | dose: 50.0 mg/kg/injection, schedule: Q04DX003 (ip), vehicle: saline with Tween-80 106 % of control | dose: 100.0 mg/kg/injection, schedule: Q04DX003 (ip), vehicle: saline with Tween-80 106 % of control

CN(C)CCCNc1cccc2c1C(=O)c1c(NCCCN(C)C)cccc1C2=O
inactive: dose: 4.0 mg/kg/injection, schedule: Q01DX009 (ip), vehicle: saline 111 % of control | dose: 8.0 mg/kg/injection, schedule: Q01DX009 (ip), vehicle: saline 97 % of control | dose: 16.0 mg/kg/injection, schedule: Q01DX009 (ip), vehicle: saline 95 % of control | dose: 32.0 mg/kg/injection, schedule: Q01DX009 (ip), vehicle: saline 89 % of control | dose: 64.0 mg/kg/injection, schedule: Q01DX009 (ip), vehicle: saline 87 % of control

CC[C@](O)(C(=O)O)c1cc2n(c(=O)c1CO)Cc1cc3ccccc3nc1-2
inactive: dose: 6.25 mg/kg/injection, schedule: Q04DX003 (ip), vehicle: saline 114 % of control | dose: 12.5 mg/kg/injection, schedule: Q04DX003 (ip), vehicle: saline 111 % of control | dose: 25.0 mg/kg/injection, schedule: Q04DX003 (ip), vehicle: saline 121 % of control
